Data taken from US8906868B2, “Aminoglycoside derivatives” (Rempex Pharmaceuticals, Inc., priority 2010, dated 2014).
Values after ≈ are worked out from the molar mass of the structure shown. Where two headings read alike, the source gives them in different places.

Tests used:
[1] = test system: Staphylococcus aureus (ATCC 29213); assay: MIC, broth microdilution; details: Staphylococcus aureus
ACM1006 acc(6′)-Ib = assay: microbe, parasite or virus in culture; assay type: cell-based, Acinetobacter baumannii; details: Acinetobacter baumannii; Table 4; read-out: Compound MIC on Bacterial Strains: Acinetobacter baumannii ACM1006 acc(6′)-Ib
Procedure, shortened: (§1)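 Using 2-fold compound series and a 5×10^5 CFU/ml inoculum in CaMHB, plates incubate 18 h at 35° C; growth inhibition is read as turbidity at 600 nm and verified visually.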

rats = assay: Nephrotoxicity of test compounds in rats; details: once daily subcutaneous
PAM3072 aac(6′)-II = assay: microbe, parasite or virus in culture; assay type: cell-based, Pseudomonas aeruginosa; details: Pseudomonas aeruginosa, Table 5; read-out: Compound MIC on Bacterial Strains: Pseudomonas aeruginosa PAM3072 aac(6′)-II
Procedure, shortened: as §1

PAM3073 aac(6′)-I = assay: microbe, parasite or virus in culture; assay type: cell-based, Pseudomonas aeruginosa; details: Pseudomonas aeruginosa, Table 5; read-out: Compound MIC on Bacterial Strains: Pseudomonas aeruginosa PAM3073 aac(6′)-I
Procedure, shortened: as §1

[2] = test system: Pseudomonas aeruginosa (ATCC 27853); assay: MIC, broth microdilution; details: Pseudomonas aeruginosa
ACM1005 ATCC 19004 = assay: MIC, broth microdilution; assay type: cell-based, Acinetobacter baumannii; details: Acinetobacter baumannii, ATCC19004; Table 4; read-out: Compound MIC on Bacterial Strains: Acinetobacter baumannii ACM1005 ATCC 19004
Procedure, shortened: as §1

ECM6003 rmtB = assay: microbe, parasite or virus in culture; assay type: cell-based, Escherichia coli; details: Escherichia coli; Table 3; read-out: Compound MIC on Bacterial Strains: ECM6003 rmtB
Procedure, shortened: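 Broth microdilution per CLSI M7-A7 in cation-adjusted Mueller Hinton broth with 2-fold serial dilutions and 5×10^5 CFU/ml inoculum. Incubated 18 hours at 35 °C; MIC read by turbidity at 600 nm and confirmed visually.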

[3] = test system: ECM6007 aac(6′) + aph(2″); assay: microbe, parasite or virus in culture; assay type: cell-based, Escherichia coli; details: Escherichia coli, 18 h; Table 4; read-out: Compound MIC on Bacterial Strains: Escherichia coli ECM6007 aac(6′) + aph(2″)
Procedure, shortened: as §1

EC1001 acc(6′)-Ib = assay: microbe, parasite or virus in culture; assay type: cell-based, Escherichia coli; details: Escherichia coli; Table 4; read-out: Compound MIC on Bacterial Strains: Escherichia coli EC1001 acc(6′)-Ib
Procedure, shortened: as §1

EC1002 aph(3′)-IV = assay: organism not typed; assay type: cell-based; details: read-out: Compound MIC on Bacterial Strains: EC1002 aph(3′)-IV
Procedure, shortened: (§2)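 Minimum inhibitory concentration was the endpoint, read spectrophotometrically at 600 nm and verified visually after an 18-hour, 35° C incubation in CaMHB at 5×10^5 CFU/ml.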

Sa 287 aac(6′) + aph(2″) = assay: microbe, parasite or virus in culture; assay type: cell-based, Staphylococcus aureus; details: Staphylococcus aureus, 18 h; Table 5; read-out: Compound MIC on Bacterial Strains: Staphylococcus aureus Sa 287 aac(6′) + aph(2″)
Protocol: To compare microbiological activity of the test compounds, minimum inhibitory concentrations (MIC.s) were determined. Antibiotic MICs were obtained using the broth microdilution method according to Clinical and Laboratory Standards Institute (CLSI) approved guidelines (Methods for dilution antimicrobial susceptibility tests for bacteria that grow aerobically; approved standard—7th ed. CLSI document M7-A7. Clinical and Laboratory Standards Institute, Wayne, Pa., incorporated herein by reference in its entirety). Antibiotics were dissolved as specified by CLSI (Performance standards for antimicrobial susceptibility testing; Seventeenth informational supplement. CLSI document M100-S17. Clinical and Laboratory Standards Institute, Wayne, Pa., incorporated herein by reference in its entirety), and were serially diluted 2-fold in cation adjusted Mueller Hinton Broth (CaMHB) at 2× concentration. Bacterial inoculums were prepared in CaMHB by suspension of a colony from an agar plate that was prepared the previous day to obtain a final concentration of 5×10^5CFU/ml. The plates were incubated for 18 hours at 35° C. […] MIC.s were determined by reading the turbidity of plate wells using a SpectraMax Plus384 plate reader (Molecular Devices, Sunnyvale, Calif., USA) at 600 nm and were confirmed by visual inspection.

[4] = test system: Escherichia coli (ATCC 25922); assay: MIC, broth microdilution; details: Escherichia coli
[5] = test system: Acinetobacter baumannii (ATCC 19606); assay: MIC, broth microdilution; details: Acinetobacter baumannii, ATCC19606, read-out: Compound MIC on Bacterial Strains: A. baumannii ATCC 19606
ECM6009 aac(3)-II = assay: microbe, parasite or virus in culture; assay type: cell-based, Escherichia coli; details: Escherichia coli, read-out: Compound MIC on Bacterial Strains: ECM6009 aac(3)-II
Procedure, shortened: as §2

ECM6006 aph(3′)-III = assay: microbe, parasite or virus in culture; assay type: cell-based, Escherichia coli; details: Escherichia coli, read-out: Compound MIC on Bacterial Strains: ECM6006 aph(3′)-III
Procedure, shortened: as §2

ECM6010 ant(2″)-I = assay: microbe, parasite or virus in culture; assay type: cell-based, Escherichia coli; details: Escherichia coli, read-out: Compound MIC on Bacterial Strains: ECM6010 ant(2″)-I
Procedure, shortened: as §2

ECM6011 aph(3′)-I = assay: microbe, parasite or virus in culture; assay type: cell-based, Escherichia coli; details: Escherichia coli, read-out: Compound MIC on Bacterial Strains: ECM6011 aph(3′)-I
Procedure, shortened: as §2

[6] = test system: Klebsiella pneumonia (ATCC 43816); assay: MIC, broth microdilution; details: Klebsiella pneumoniae, ATCC43816, read-out: Compound MIC on Bacterial Strains: K. pneumonia ATCC 43816
[7] = ATCC29213, read-out: Compound MIC on Bacterial Strains: S. aureus ATCC 29213, QC strain, Table 2
[8] = ATCC29213, read-out: Compound MIC on Bacterial Strains: Staphylococcus aureus SAM1000 ATCC 29213, Table 5
[9] = ATCC27853, read-out: Compound MIC on Bacterial Strains: P. aeruginosa ATCC 27853
[10] = ATCC27853, read-out: Compound MIC on Bacterial Strains: Pseudomonas aeruginosa PAM3034 ATCC 27853
[11] = ATCC25922, read-out: Compound MIC on Bacterial Strains: E. coli ATCC 25922
[12] = ATCC25922, read-out: Compound MIC on Bacterial Strains: ECM6000 ATCC 25922
[13] = ATCC25922, read-out: Compound MIC on Bacterial Strains: Escherichia coli ECM6000 ATCC 25922

Row | SMILES | MIC [1, 7] | MIC [1, 8] | MIC (ACM1006 acc(6′)-Ib) | Histopathology Results After 7 days of Dosing (rats; 10 mg/kg/day) | Histopathology Results After 14 days of Dosing (rats; 10 mg/kg/day) | Histopathology Results After 7 days of Dosing (rats; 30 mg/kg/day) | Histopathology Results After 14 days of Dosing (rats; 30 mg/kg/day) | Histopathology Results After 7 days of Dosing (rats; 100 mg/kg/day) | Histopathology Results After 14 days of Dosing (rats; 100 mg/kg/day) | MIC (PAM3072 aac(6′)-II) | MIC (PAM3073 aac(6′)-I) | MIC [2, 9] | MIC [2, 10] | MIC (ACM1005 ATCC 19004) | MIC (ECM6003 rmtB) | MIC [3] | MIC (EC1001 acc(6′)-Ib) | MIC (EC1002 aph(3′)-IV) | MIC (Sa 287 aac(6′) + aph(2″)) | MIC [4, 11] | other results
1 | CN[C@@H]1[C@@H](O)[C@@H](O[C@@H]2[C@@H](O)[C@H](O[C@H]3O[C@H](CNCCO)CC[C@H]3N)[C@@H](N)C[C@H]2NC(=O)[C@@H](O)CCN)OC[C@]1(C)O [Compound 1, (2S)-4-amino-N-((1R,2S,3S,4R,5S)-5-amino-4-((2R,3R,6S)-3-amino-6-((2-hydroxyethylamino)methyl)tetrahydro-2H-pyran-2-yloxy)-2-((2R,3R,5R)-3,5-dihydroxy-5-methyl-4-(methylamino)tetrahydro-2H-pyran-2-yloxy)-3-hydroxycyclohexyl)-2-hydroxybutanamide] | < 1 µg/mL | < 1 µg/mL | < 1 µg/mL | No Change | No Change | Mild Nephrosis | Moderate to Severe Nephrosis | Severe Nephrosis | 4/4 Died | > 8 µg/mL | 1 to 8 µg/mL (≈ 1.68 to 13.5 µM) | 1 to 8 µg/mL (≈ 1.68 to 13.5 µM) | 1 to 8 µg/mL (≈ 1.68 to 13.5 µM) | < 1 µg/mL | > 8 µg/mL | < 1 µg/mL | < 1 µg/mL | < 1 µg/mL | 1 to 8 µg/mL | < 1 µg/mL | MIC [4, 12]: < 1 µg/mL; MIC [4, 13]: < 1 µg/mL; MIC [5]: > 8 µg/mL; MIC (ECM6009 aac(3)-II): < 1 µg/mL; MIC (ECM6006 aph(3′)-III): 1 to 8 µg/mL (≈ 1.68 to 13.5 µM); MIC (ECM6010 ant(2″)-I): < 1 µg/mL; MIC (ECM6011 aph(3′)-I): < 1 µg/mL; MIC [6]: < 1 µg/mL
2 | CN[C@@H]1[C@@H](O)[C@@H](O[C@@H]2[C@@H](O)[C@H](O[C@H]3O[C@H](CNCCO)CC[C@H]3N)[C@@H](N)C[C@H]2NC(=O)[C@@H](O)CN)OC[C@]1(C)O [Compound 2, (S)-3-amino-N-((1R,2S,3S,4R,5S)-5-amino-4-((2R,3R,6S)-3-amino-6-((2-hydroxyethylamino)methyl)tetrahydro-2H-pyran-2-yloxy)-2-((2R,3R,4R,5R)-3,5-dihydroxy-5-methyl-4-(methylamino)tetrahydro-2H-pyran-2-yloxy)-3-hydroxycyclohexyl)-2-hydroxypropanamide] | < 1 µg/mL | < 1 µg/mL | 1 to 8 µg/mL (≈ 1.72 to 13.8 µM) | Minimal Tubular Eosinophilia; | No change | Minimal Tubular Eosinophilia; | Minimal to Mild Dilatation | Mild Tubular Eosinophila | No Deaths; Moderate to Severe | > 8 µg/mL | 1 to 8 µg/mL (≈ 1.72 to 13.8 µM) | 1 to 8 µg/mL (≈ 1.72 to 13.8 µM) | 1 to 8 µg/mL (≈ 1.72 to 13.8 µM) | 1 to 8 µg/mL (≈ 1.72 to 13.8 µM) | > 8 µg/mL | < 1 µg/mL | < 1 µg/mL | 1 to 8 µg/mL (≈ 1.72 to 13.8 µM) | < 1 µg/mL | < 1 µg/mL | MIC [4, 12]: < 1 µg/mL; MIC [4, 13]: < 1 µg/mL; MIC [5]: > 8 µg/mL; MIC (ECM6009 aac(3)-II): < 1 µg/mL; MIC (ECM6006 aph(3′)-III): < 1 µg/mL; MIC (ECM6010 ant(2″)-I): < 1 µg/mL; MIC (ECM6011 aph(3′)-I): < 1 µg/mL; MIC [6]: < 1 µg/mL
